Where two headings read alike, the source gives them in different places.
What was measured:
[1] = Equilibrium dialysis, fraction unbound in brain homogenate; format: in vitro ADME, human
[2] = Levels in intraoperatively collected CSF of GBM patients; format: in vivo; conditions: human, po, five GBM patients, oral LY3214996 200 mg once daily and abemaciclib 150 mg twice daily for 5 days, intraoperative CSF
Description: Blank brain and clinical brain tumor tissue homogenates were prepared at 1:9 (m/V) ratio with PBS. The samples were homogenized at a speed of 6.00 m/s for 40 s for three cycles using a Bead Ruptor Elite homogenizer (Omni International, Kennesaw, GA, USA). Plasma was used as a surrogate matrix when preparing calibration curves for brain and brain tumor homogenates and CSF as well as for the PBS fraction after sample dialysis. To minimize matrix differences, all plasma samples were spiked with PBS, while all non-plasma samples were spiked with plasma. Extraction of the analyte and IS was facilitated by protein precipitation using methanol-containing IS precipitation solution. Samples (70 μL) spiked with PBS or plasma were precipitated using 400 μL of IS precipitation solution. After centrifugation at 12,000 r/min for 10 min at 4 °C, the supernatant was transferred for LC-MS/MS analysis.
The validated bioanalytical method was employed to investigate analytes pharmacokinetics in the plasma, brain tumor, and CSF in GBM patients (ClinicalTrials.gov identifier: NCT04391595). The protocol was reviewed and approved by the Institutional Review Board of the Barrow Neurological Institute, St. Joseph's Hospital and Medical Center (Phoenix, AZ, USA). All patients enrolled in the trial provided written informed consent. […] Blood, CSF, and GBM tissue (including gadolinium-contrast enhancing and non-enhancing regions) samples were obtained intra-operatively from each patient on the […] on the planned operation day. Blood was centrifuged at 4 °C and 3,000 r/min for 10 min; plasma was subsequently collected. Brain tumors were resected 7–9 h after the last dose was administered. Once resected, the tissue samples were rinsed with PBS, paper dried, and freshly frozen in liquid nitrogen. The samples were then stored at −80 °C in a freezer for later analysis.

[3] = Analyte stability in human plasma; format: physicochemical; conditions: for Freeze-thaw stability, Accuracy / Freeze-thaw stability, Mean concentration / Freeze-thaw stability, Difference: 3 cycles; for Freeze-thaw stability, Difference / Benchtop stability, Difference / Processed sample stability, Difference / Autosampler stability (5 °C), Difference / Long-term stability (−20 °C), Difference: vs freshly processed QC; for Benchtop stability, Accuracy / Benchtop stability, Mean concentration / Benchtop stability, Difference: 19 h; for Processed sample stability, Accuracy / Processed sample stability, Mean concentration / Processed sample stability, Difference: 23 h; for Autosampler stability (5 °C), Accuracy / Autosampler stability (5 °C), Mean concentration / Autosampler stability (5 °C), Difference: 112 h; for Long-term stability (−20 °C), Accuracy / Long-term stability (−20 °C), Mean concentration / Long-term stability (−20 °C), Difference: 27 days
Description: The stability of the analytes was studied under various storage and processing conditions. […] Short- and long-term stability studies of all analytes were conducted in human blank plasma and brain homogenate under several storage conditions. Analyte stability in biological matrices was analyzed using freshly prepared calibration standards and QC samples. The percentage difference between the stability and freshly processed QC was also assessed. Re-injection reproducibility was evaluated within the sample stability period in the autosampler. Analytes were considered stable if the accuracy at each level was ±15.0% of the nominal value. Additionally, the difference from corresponding comparison QC samples must be within ±15.0%.

[4] = Equilibrium dialysis, fraction unbound in patient brain tumor tissue; format: in vitro ADME; conditions: human, five patients, 16 h equilibrium dialysis
Outline: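 Fraction unbound determined by equilibrium dialysis (10 kDa membrane) of patient brain tumor tissue homogenate against PBS pH 7.4 for 16 h; fu,hom = post-dialysis PBS/homogenate concentration, converted to fu,tissue using the homogenate dilution factor. Tumors were resected 7–9 h post last dose; mean of five patients.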

[5] = Analyte stability in brain homogenate; format: physicochemical, human; conditions: for Freeze-thaw stability, Accuracy / Freeze-thaw stability, Mean concentration / Freeze-thaw stability, Difference: 3 cycles; for Freeze-thaw stability, Difference / Benchtop stability, Difference / Processed sample stability, Difference / Autosampler stability (5 °C), Difference / Long-term stability (−20 °C), Difference: vs freshly processed QC; for Benchtop stability, Accuracy / Benchtop stability, Mean concentration / Benchtop stability, Difference: 6 h; for Processed sample stability, Accuracy / Processed sample stability, Mean concentration / Processed sample stability, Difference: 22 h; for Autosampler stability (5 °C), Accuracy / Autosampler stability (5 °C), Mean concentration / Autosampler stability (5 °C), Difference: 96 h
Outline: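 Stability of the analytes was examined in brain homogenate under several storage and processing conditions. QC stability samples were quantified against freshly prepared calibration standards and QC samples, and the percentage difference from freshly processed QC was calculated. Analytes counted as stable when accuracy at each level stayed within ±15.0% of nominal and the difference from comparison QCs was within ±15.0%.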

Cn1nccc1Nc1nccc(-c2cc3c(s2)C(C)(C)N(CCN2CCOCC2)C3=O)n1 [LY3214996]
fraction unbound at 16 h ([1]; pH 7.4, human brain homogenate spiked at 20 and 200 nM, 16 h equilibrium dialysis, read-out: Fraction unbound (fu), Brain): 0.065 | Plasma protein binding compared to binding to brain tissue components (ratio) ([1]; spiked pooled human plasma vs human brain homogenate): at least 5.5 fold | concentration at 6 day (intra-operative) ([2]; read-out: Level in CSF (range)): 49.7 to 118 nM | concentration at 6 day (intra-operative) ([2]; read-out: Median level in CSF): 95.5 nM | Freeze-thaw stability, Accuracy ([3]; HQC 400.0 nM): 100.6% | Freeze-thaw stability, Mean concentration ([3]; HQC 400.0 nM): 402.5 nM | Freeze-thaw stability, Difference ([3]; HQC 400.0 nM): 3.2% | Freeze-thaw stability, Accuracy ([3]; LQC 0.6 nM): 101.0% | Freeze-thaw stability, Mean concentration ([3]; LQC 0.6 nM): 0.606 nM | Freeze-thaw stability, Difference ([3]; LQC 0.6 nM): 5.3% | Benchtop stability, Accuracy ([3]; HQC 400.0 nM): 102.3% | Benchtop stability, Mean concentration ([3]; HQC 400.0 nM): 409.3 nM | Benchtop stability, Difference ([3]; HQC 400.0 nM): 2.8% | Benchtop stability, Accuracy ([3]; LQC 0.6 nM): 97.7% | Benchtop stability, Mean concentration ([3]; LQC 0.6 nM): 0.586 nM | Benchtop stability, Difference ([3]; LQC 0.6 nM): 3.2% | Processed sample stability, Accuracy ([3]; HQC 400.0 nM): 97.7% | Processed sample stability, Mean concentration ([3]; HQC 400.0 nM): 390.7 nM | Processed sample stability, Difference ([3]; HQC 400.0 nM): 2.2% | Processed sample stability, Accuracy ([3]; LQC 0.6 nM): 91.1% | Processed sample stability, Mean concentration ([3]; LQC 0.6 nM): 0.547 nM | Processed sample stability, Difference ([3]; LQC 0.6 nM): −3.4% | Autosampler stability (5 °C), Accuracy ([3]; HQC 400.0 nM): 95.4% | Autosampler stability (5 °C), Mean concentration ([3]; HQC 400.0 nM): 381.8 nM | Autosampler stability (5 °C), Difference ([3]; HQC 400.0 nM): 1.5% | Autosampler stability (5 °C), Accuracy ([3]; LQC 0.6 nM): 92.5% | Autosampler stability (5 °C), Mean concentration ([3]; LQC 0.6 nM): 0.555 nM | Autosampler stability (5 °C), Difference ([3]; LQC 0.6 nM): 3.1% | Long-term stability (−20 °C), Accuracy ([3]; HQC 400.0 nM): 104.5% | Long-term stability (−20 °C), Mean concentration ([3]; HQC 400.0 nM): 418.1 nM | Long-term stability (−20 °C), Difference ([3]; HQC 400.0 nM): 3.4% | Long-term stability (−20 °C), Accuracy ([3]; LQC 0.6 nM): 101.5% | Long-term stability (−20 °C), Mean concentration ([3]; LQC 0.6 nM): 0.609 nM | Long-term stability (−20 °C), Difference ([3]; LQC 0.6 nM): −2.2% | fraction unbound at 16 h ([4]; pH 7.4, gadolinium contrast enhancing GBM region, read-out: Fraction unbound (fu), GBM (E)): 0.109 | fraction unbound at 16 h ([4]; pH 7.4, gadolinium contrast non-enhancing GBM region, read-out: Fraction unbound (fu), GBM (NE)): 0.06 | Freeze-thaw stability, Accuracy ([5]; HQC 400.0 nM): 103.2% | Freeze-thaw stability, Mean concentration ([5]; HQC 400.0 nM): 412.9 nM | Freeze-thaw stability, Difference ([5]; HQC 400.0 nM): 1.1% | Freeze-thaw stability, Accuracy ([5]; LQC 0.6 nM): 101.4% | Freeze-thaw stability, Mean concentration ([5]; LQC 0.6 nM): 0.608 nM | Freeze-thaw stability, Difference ([5]; LQC 0.6 nM): −7.9% | Benchtop stability, Accuracy ([5]; HQC 400.0 nM): 101.7% | Benchtop stability, Mean concentration ([5]; HQC 400.0 nM): 406.7 nM | Benchtop stability, Difference ([5]; HQC 400.0 nM): −1.5% | Benchtop stability, Accuracy ([5]; LQC 0.6 nM): 110.2% | Benchtop stability, Mean concentration ([5]; LQC 0.6 nM): 0.661 nM | Benchtop stability, Difference ([5]; LQC 0.6 nM): 0.2% | Processed sample stability, Accuracy ([5]; HQC 400.0 nM): 102.3% | Processed sample stability, Mean concentration ([5]; HQC 400.0 nM): 409.3 nM | Processed sample stability, Difference ([5]; HQC 400.0 nM): −0.9% | Processed sample stability, Accuracy ([5]; LQC 0.6 nM): 112.3% | Processed sample stability, Mean concentration ([5]; LQC 0.6 nM): 0.674 nM | Processed sample stability, Difference ([5]; LQC 0.6 nM): 2.1% | Autosampler stability (5 °C), Accuracy ([5]; HQC 400.0 nM): 105.2% | Autosampler stability (5 °C), Mean concentration ([5]; HQC 400.0 nM): 420.9 nM | Autosampler stability (5 °C), Difference ([5]; HQC 400.0 nM): 3.3% | Autosampler stability (5 °C), Accuracy ([5]; LQC 0.6 nM): 111.2% | Autosampler stability (5 °C), Mean concentration ([5]; LQC 0.6 nM): 0.667 nM | Autosampler stability (5 °C), Difference ([5]; LQC 0.6 nM): 4.4% | Long-term stability (−20 °C), Mean concentration ([5]; 39 days, HQC 400.0 nM): 422.7 nM | Long-term stability (−20 °C), Difference ([5]; 39 days, HQC 400.0 nM): 3.5% | Long-term stability (−20 °C), Accuracy ([5]; 39 days, LQC 0.6 nM): 103.6% | Long-term stability (−20 °C), Mean concentration ([5]; 39 days, LQC 0.6 nM): 0.622 nM | Long-term stability (−20 °C), Difference ([5]; 39 days, LQC 0.6 nM): −5.9%

Source: PMC9463526 (Journal of Pharmaceutical Analysis, 2022)
